Three compounds from patent US20210300859A1, “ROSMARINIC ACID DERIVATIVE OR SALT THEREOF” (KAO CORPORATION, priority 2018, published 2021) can be followed below.

The test deals with T1, human TRPV4 (Homo sapiens, UniProt Q9HBA0).
T1 construct: expressed in transfected cells; host or cells: HeLa cells, transient transfection with a pcDNA 3.1 Directional TOPO vector
In words: Evaluation of TRPV4 activity-inhibiting action: intracellular calcium ion influx rate in human TRPV4-expressing HeLa cells stimulated with GSK1016790a (Fluo 4). It is filed as cell-based. As to conditions: for Intracellular Ca^2+ influx rate (%): GSK + DMSO defined as 100%, n = 3, Mean ± S.E.; for calcium ion influx into cells by a TRPV4 agonist (result in words): concentration-dependent, 100 and 300 μM, vs GSK1016790a + DMSO, Dunnett's test. How it is done:
HeLa cells were cultured using a DMEM/F12 medium containing 10% fetal bovine serum. The HeLa cells were seeded in a T-75 cell culture flask at 5×10^5 cells/flask. The cells were cultured for 3 days, were then transfected with the human TRPV4 gene expression vector (8 μg) produced in the above (2) using TransIT-HeLaMONSTER Transfection Kit, and were cultured for 1 day.
The cells were detached with Detachin, were seeded in a 96-well optical bottom plate containing a DMEM/F12 medium containing 10% fetal bovine serum at a cell density of 1.5×10^4 cells/90 μL/well, and were further cultured for 1 day.
The intracellular calcium ion influx rate was measured using Calcium Kit II-fluo 4. Loading buffer containing Fluo 4-AM and Hanks' balanced salt solution were mixed at 1:1 and were then added to the human TRPV4-expressing cells produced in the above (3) at 180 μL/well, followed by incubation at 37° C. for 1 hour. Subsequently, the fluorescence intensity (excitation wavelength: 488 nm, fluorescence wavelength: 524 nm) was measured every 2 seconds at 37° C. using a fluorescence plate reader FDSS3000 (Hamamatsu Photonics K.K.). 30 seconds after the start of the measurement, GSK1016790a as a TRPV4 agonist and the 4-O-methyl-rosmarinic acid or 3,4′-di-O-methyl-rosmarinic acid solution prepared in the above Manufacturing Example as a sample were each diluted with Hanks' balanced salt solution, and a mixture solution thereof (mixed immediately before the addition) was added at 20 μL/well. The change in fluorescence intensity was measured every 2 seconds for 300 seconds. GSK1016790a was added to give a final concentration of 3 nM.
In addition, as a positive control for TRPV4 activity inhibition, HC067047, which is a TRPV4 antagonist, was added at a final concentration of 10 μM. 4-O-Methyl-rosmarinic acid, 3,4′-di-O-methyl-rosmarinic acid, GSK1016790a, and HC067047 were all used by dissolving in dimethyl sulfoxide (DMSO).
The TRPV4 activity of a sample was calculated by the following expression, and the intracellular calcium ion influx rate due to the treatment with a TRPV4 agonist, GSK1016790a, was defined as 100%.
Intracellular calcium ion influx rate (%)=[(F max/F0)−(F max C2/F0C2)]/[(F max C1/F0C1)−(F max C2/F0C2)]×100
F max: Maximum fluorescence intensity of the well containing GSK1016790a and a sample in the period from 0 to 300 seconds after the start of the measurement,
F max C1: Maximum fluorescence intensity of the well containing GSK1016790a and a solvent in the period from 0 to 300 seconds after the start of the measurement,
F max C2: Maximum fluorescence intensity of the well containing only a solvent in the period from 0 to 300 seconds after the start of the measurement,
F0: Fluorescence intensity of the well of F max immediately after the start of the measurement,
F0C1: Fluorescence intensity of the well of F max C1 immediately after the start of the measurement, and
F0C2: Fluorescence intensity of the well containing only a solvent immediately after the start of the measurement.
The intracellular calcium ion influx rate (each group, n=3) when a sample was added was compared to that when GSK1016790a and a solvent (DMSO) were added and was examined by a Dunnett's test. […] The results are expressed as the mean value (Mean)±standard error (S.E.).

The mark [1] stands for this setting: sample 100 μM with GSK1016790a 3 nM.
[2] abbreviates: sample 300 μM with GSK1016790a 3 nM.

T1 sequence (Q9HBA0 whole entry): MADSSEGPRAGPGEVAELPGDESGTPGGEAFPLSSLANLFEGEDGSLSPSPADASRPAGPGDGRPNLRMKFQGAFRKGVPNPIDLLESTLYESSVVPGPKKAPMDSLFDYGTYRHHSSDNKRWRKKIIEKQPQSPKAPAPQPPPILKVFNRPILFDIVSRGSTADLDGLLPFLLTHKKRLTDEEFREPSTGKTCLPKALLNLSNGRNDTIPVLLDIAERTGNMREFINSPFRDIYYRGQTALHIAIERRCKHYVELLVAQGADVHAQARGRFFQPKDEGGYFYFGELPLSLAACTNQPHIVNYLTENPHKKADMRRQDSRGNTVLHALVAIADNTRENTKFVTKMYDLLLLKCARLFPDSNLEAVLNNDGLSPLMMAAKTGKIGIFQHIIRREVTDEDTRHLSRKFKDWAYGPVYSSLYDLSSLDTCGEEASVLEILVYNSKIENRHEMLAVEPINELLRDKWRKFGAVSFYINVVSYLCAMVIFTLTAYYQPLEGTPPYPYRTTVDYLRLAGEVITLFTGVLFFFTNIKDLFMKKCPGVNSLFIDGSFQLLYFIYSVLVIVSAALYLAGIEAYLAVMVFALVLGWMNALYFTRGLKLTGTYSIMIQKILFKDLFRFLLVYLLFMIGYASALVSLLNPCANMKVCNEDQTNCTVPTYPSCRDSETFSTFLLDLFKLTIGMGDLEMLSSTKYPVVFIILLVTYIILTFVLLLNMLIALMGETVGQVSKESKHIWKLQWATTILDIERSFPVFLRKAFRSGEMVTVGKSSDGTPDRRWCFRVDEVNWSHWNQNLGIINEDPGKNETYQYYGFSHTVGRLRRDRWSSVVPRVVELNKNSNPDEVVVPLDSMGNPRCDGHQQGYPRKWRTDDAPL

Turning to `Cc1c(C(=O)Nc2cccc(C(F)(F)F)c2)cc(-c2ccccc2)n1CCCN1CCOCC1` [HC067047, reference compound], the “Intracellular Ca^2+ influx rate (%)” value (sample 10 μM with GSK1016790a 3 nM) is reported as 2.46 ± 0.14 (P < 0.001) %.
With `COc1ccc(/C=C/C(=O)OC(Cc2ccc(O)c(OC)c2)C(=O)O)cc1O` (stereo not shown) [3,4′-DiMe-RA, (E)-3-(4-hydroxy-3-methoxyphenyl)-2-{[3-(3-hydroxy-4-methoxyphenyl)acryloyl]oxy}propionic acid], the “calcium ion influx into cells by a TRPV4 agonist (result in words)” value is “significantly decreased”. Further, the “Intracellular Ca^2+ influx rate (%)” value under setting [1] was 78.81 ± 1.73 (P < 0.001) %. Moreover, the “Intracellular Ca^2+ influx rate (%)” value under setting [2] was 71.25 ± 5.52 (P < 0..001) %.
In the same order, the values of `COc1ccc(CC(OC(=O)/C=C/c2ccc(O)c(O)c2)C(=O)O)cc1O` (stereo not shown) [4-Me-RA, (E)-3-(3-hydroxy-4-methoxyphenyl)-2-{[3-(3,4-dihydroxyphenyl)acryloyl]oxy}propionic acid] are “significantly decreased”, 92.65 ± 0.89 (N.S.) % and 82.90 ± 3.04 (P < 0.01) %.
